Results taken from patent publication US20150094474A1, “AGRICULTURAL CHEMICALS” (Redx Pharma Ltd., priority 2012, published 2015).

Legend:
peas = assay: Herbicidal bioassay, peas (% necrosis); format: in vivo
In short: (§1)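 Scoring of % necrosis followed EPPO guideline PP1/135 at specified growth intervals, five replicates per species and treatment. Plants at the 2-4 true leaf stage received Potter-tower sprays of DMSO-diluted compounds across six levels from 0.0001% to 0.05%, with water and DMSO controls.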

barley = assay: Herbicidal bioassay, barley (% necrosis); format: in vivo
In short: as §1

CC(/C=N/OCc1ccccc1)Oc1ccc(Oc2ccc(C(F)(F)F)cn2)cc1 (stereo not drawn) [Compound 65, N-Benzyloxy-2-[4-[[5-(trifluoromethyl)-2-pyridyl]oxy]phenoxy]propan-1-imine]
C (less than 50% necrosis): Sum of % necrosis in Peas (peas; Dose 0.000001, Day 0) | Sum of % necrosis in Peas (peas; Dose 0.000001, Day 1) | Sum of % necrosis in Peas (peas; Dose 0.000001, Day 3) | Sum of % necrosis in Peas (peas; Dose 0.000001, Day 7) | Sum of % necrosis in Peas (peas; Dose 0.000001, Day 10) | Sum of % necrosis in Peas (peas; Dose 0.000001, Day 14) | Sum of % necrosis in Peas (peas; Dose 0.000005, Day 0) | Sum of % necrosis in Peas (peas; Dose 0.000005, Day 1) | Sum of % necrosis in Peas (peas; Dose 0.000005, Day 3) | Sum of % necrosis in Peas (peas; Dose 0.000005, Day 7) | Sum of % necrosis in Peas (peas; Dose 0.000005, Day 10) | Sum of % necrosis in Peas (peas; Dose 0.000005, Day 14) | Sum of % necrosis in Peas (peas; Dose 0.00001, Day 0) | Sum of % necrosis in Peas (peas; Dose 0.00001, Day 1) | Sum of % necrosis in Peas (peas; Dose 0.00001, Day 3) | Sum of % necrosis in Peas (peas; Dose 0.00001, Day 7) | Sum of % necrosis in Peas (peas; Dose 0.00001, Day 10) | Sum of % necrosis in Peas (peas; Dose 0.00001, Day 14) | Sum of % necrosis in Peas (peas; Dose 0.00005, Day 0) | Sum of % necrosis in Peas (peas; Dose 0.00005, Day 1) | Sum of % necrosis in Peas (peas; Dose 0.00005, Day 3) | Sum of % necrosis in Peas (peas; Dose 0.00005, Day 7) | Sum of % necrosis in Peas (peas; Dose 0.00005, Day 10) | Sum of % necrosis in Peas (peas; Dose 0.00005, Day 14) | Sum of % necrosis in Peas (peas; Dose 0.0001, Day 0) | Sum of % necrosis in Peas (peas; Dose 0.0001, Day 1) | Sum of % necrosis in Peas (peas; Dose 0.0001, Day 3) | Sum of % necrosis in Peas (peas; Dose 0.0001, Day 7) | Sum of % necrosis in Peas (peas; Dose 0.0001, Day 10) | Sum of % necrosis in Peas (peas; Dose 0.0001, Day 14) | Sum of % necrosis in Peas (peas; Dose 0.0005, Day 0) | Sum of % necrosis in Peas (peas; Dose 0.0005, Day 1) | Sum of % necrosis in Peas (peas; Dose 0.0005, Day 3) | Sum of % necrosis in Peas (peas; Dose 0.0005, Day 7) | Sum of % necrosis in Peas (peas; Dose 0.0005, Day 10) | Sum of % necrosis in Peas (peas; Dose 0.0005, Day 14) | Sum of % necrosis in barley (barley; Dose 0.000001, Day 0) | Sum of % necrosis in barley (barley; Dose 0.000001, Day 1) | Sum of % necrosis in barley (barley; Dose 0.000001, Day 3) | Sum of % necrosis in barley (barley; Dose 0.000001, Day 7) | Sum of % necrosis in barley (barley; Dose 0.000001, Day 10) | Sum of % necrosis in barley (barley; Dose 0.000001, Day 14) | Sum of % necrosis in barley (barley; Dose 0.000005, Day 0) | Sum of % necrosis in barley (barley; Dose 0.000005, Day 1) | Sum of % necrosis in barley (barley; Dose 0.000005, Day 3) | Sum of % necrosis in barley (barley; Dose 0.000005, Day 7) | Sum of % necrosis in barley (barley; Dose 0.000005, Day 10) | Sum of % necrosis in barley (barley; Dose 0.000005, Day 14) | Sum of % necrosis in barley (barley; Dose 0.00001, Day 0) | Sum of % necrosis in barley (barley; Dose 0.00001, Day 1) | Sum of % necrosis in barley (barley; Dose 0.00001, Day 3) | Sum of % necrosis in barley (barley; Dose 0.00001, Day 7) | Sum of % necrosis in barley (barley; Dose 0.00001, Day 10) | Sum of % necrosis in barley (barley; Dose 0.00001, Day 14) | Sum of % necrosis in barley (barley; Dose 0.00005, Day 0) | Sum of % necrosis in barley (barley; Dose 0.00005, Day 1) | Sum of % necrosis in barley (barley; Dose 0.00005, Day 3) | Sum of % necrosis in barley (barley; Dose 0.00005, Day 7) | Sum of % necrosis in barley (barley; Dose 0.00005, Day 10) | Sum of % necrosis in barley (barley; Dose 0.00005, Day 14) | Sum of % necrosis in barley (barley; Dose 0.0001, Day 0) | Sum of % necrosis in barley (barley; Dose 0.0001, Day 1) | Sum of % necrosis in barley (barley; Dose 0.0001, Day 3) | Sum of % necrosis in barley (barley; Dose 0.0001, Day 7) | Sum of % necrosis in barley (barley; Dose 0.0001, Day 10) | Sum of % necrosis in barley (barley; Dose 0.0001, Day 14) | Sum of % necrosis in barley (barley; Dose 0.0005, Day 0) | Sum of % necrosis in barley (barley; Dose 0.0005, Day 1) | Sum of % necrosis in barley (barley; Dose 0.0005, Day 3) | Sum of % necrosis in barley (barley; Dose 0.0005, Day 7) | Sum of % necrosis in barley (barley; Dose 0.0005, Day 10) | Sum of % necrosis in barley (barley; Dose 0.0005, Day 14)
